Where a name gives a salt, the structure may show the parent alone.
target: rat 5-HT7 receptors (Rattus norvegicus (Rat), UniProt P32305); assay: r5-HT7 competitive radioligand binding assay ([3H]5-CT); settings: membrane fractions of HEK-293 cells recombinantly expressing rat 5-HT7
Description: Compound affinity for the rat 5-HT7 receptor subtype was evaluated by competitive radioligand binding assays using 5-carboxamido[^3H]tryptamine ([^3H]5-CT) (Amersham Biosciences, cat. 90000403) detection. HitHunter™ cAMP assays are in-vitro based competitive immunoassays. […] Cells were pre-incubated with test compounds for 10 minutes. For agonistic testing, the concentration of test compound that produced a half-maximal response is represented by the EC50 value. Compounds were assayed in their free form or as salts, as indicated in the Examples section above.

Chain of rat 5-HT7 receptors (P32305 1-435): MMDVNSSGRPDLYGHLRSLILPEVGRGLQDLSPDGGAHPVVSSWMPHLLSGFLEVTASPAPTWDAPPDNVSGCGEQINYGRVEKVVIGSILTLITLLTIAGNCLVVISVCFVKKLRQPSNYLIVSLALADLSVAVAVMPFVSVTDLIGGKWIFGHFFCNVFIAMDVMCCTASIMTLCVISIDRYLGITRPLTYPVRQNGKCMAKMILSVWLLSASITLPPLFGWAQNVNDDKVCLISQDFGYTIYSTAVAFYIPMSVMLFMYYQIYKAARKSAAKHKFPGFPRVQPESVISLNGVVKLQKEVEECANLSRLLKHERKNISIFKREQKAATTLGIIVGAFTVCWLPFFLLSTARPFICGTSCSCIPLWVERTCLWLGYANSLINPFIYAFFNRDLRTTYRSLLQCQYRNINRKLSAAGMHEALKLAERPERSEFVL

Ki [nM]	SMILES
5.46	COc1ccc(-c2ccccc2C)cc1C1CCNC1 (racemic) [Example 43, (±)-3-(4-Methoxy-2′-methyl-biphenyl-3-yl)-pyrrolidine]
19	COc1ccc(-c2cccc(F)c2C)cc1C1CCNC1 (racemic) [Example 44, (±)-3-(3′-Fluoro-4-methoxy-2′-methyl-biphenyl-3-yl)-pyrrolidine]
52	COc1ccc(-c2cccc(F)c2F)cc1C1CCNC1 (racemic) [Example 45, (±)-3-(2′,3′-Difluoro-4-methoxy-biphenyl-3-yl)-pyrrolidine]
117	COc1ccc(-c2cccc(C(F)(F)F)c2)cc1C1CCNC1 (racemic) [Example 46, (±)-3-(4-Methoxy-3′-trifluoromethyl-biphenyl-3-yl)-pyrrolidine]
7.98	COc1ccc(-c2ccccc2C(F)(F)F)cc1C1CCNC1 (racemic) [Example 47, (±)-3-(4-Methoxy-2′-trifluoromethyl-biphenyl-3-yl)-pyrrolidine]
19.8	COc1ccc(-c2ccccc2OC(F)(F)F)cc1C1CCNC1 (racemic) [Example 48, (±)-3-(4-Methoxy-2′-trifluoromethoxy-biphenyl-3-yl)-pyrrolidine]
130	COc1ccc(-c2ccccc2)cc1C1CCNC1 (racemic) [Example 49, (±)-3-(4-Methoxy-biphenyl-3-yl)-pyrrolidine]
150	COc1ccc(-c2ccccc2)cc1C1CCN(C)C1 (racemic) [Example 50, (±)-3-(4-Methoxy-biphenyl-3-yl)-1-methyl-pyrrolidine]
120	c1ccc(-c2ccccc2C2CCNC2)cc1 (racemic) [Example 51, (±)-3-Biphenyl-2-yl-pyrrolidine]
80.2	Cc1cccc(-c2ccccc2C2CCNC2)c1 (racemic) [Example 52, (±)-3-(3′-Methyl-biphenyl-2-yl)-pyrrolidine]
120	Cc1ccc(-c2ccccc2C2CCNC2)cc1 (racemic) [Example 54, (±)-3-(4′-Methyl-biphenyl-2-yl)-pyrrolidine]
430	Cc1ccc(-c2ccccc2C2CCN(C)C2)cc1 (racemic) [Example 55, (±)-1-Methyl-3-(4′-methyl-biphenyl-2-yl)-pyrrolidine]
55.9	Cc1ccc(-c2ccccc2C2CCNC2)cc1C (racemic) [Example 57, (±)-3-(3′,4′-Dimethyl-biphenyl-2-yl)-pyrrolidine]
210	Cc1ccccc1-c1ccccc1C1CCNC1 (racemic) [Example 59, (±)-3-(2′-Methyl-biphenyl-2-yl)-pyrrolidine]
330	Cc1ccccc1-c1ccccc1C1CCN(C)C1 (racemic) [Example 60, (±)-1-Methyl-3-(2′-methyl-biphenyl-2-yl)-pyrrolidine]
300	COc1ccccc1-c1ccccc1C1CCNC1 (racemic) [Example 61, (±)-3-(2′-Methoxy-biphenyl-2-yl)-pyrrolidine]
730	COc1ccccc1-c1ccccc1C1CCN(C)C1 (racemic) [Example 62, (±)-3-(2′-Methoxy-biphenyl-2-yl)-1-methyl-pyrrolidine]
1700	COc1ccc(C)cc1-c1ccccc1C1CCNC1 (racemic) [Example 63, (±)-3-(2′-Methoxy-5′-methyl-biphenyl-2-yl)-pyrrolidine]
130	Clc1cccc(-c2ccc(Cl)cc2C2CCNC2)c1 (racemic) [Example 65, (±)-3-(4,3′-Dichloro-biphenyl-2-yl)-pyrrolidine]
380	Cc1cc(-c2ccc(Cl)cc2C2CCNC2)ccc1F (racemic) [Example 66, (±)-3-(4-Chloro-4′-fluoro-3′-methyl-biphenyl-2-yl)-pyrrolidine]
120	Cc1ccc(-c2ccc(Cl)cc2C2CCNC2)cc1C (racemic) [Example 67, (±)-3-(4-Chloro-3′,4′-dimethyl-biphenyl-2-yl)-pyrrolidine]
21	COc1ccc(-c2ccc(F)cc2C)cc1OC1CNC1 [Example 2, 3-(4′-Fluoro-4-methoxy-2′-methyl-biphenyl-3-yloxy)-azetidine]

Ki [nM]	SMILES
10	COc1ccc(-c2ccccc2OC(F)(F)F)cc1OC1CNC1 [Example 7, 3-(4-Methoxy-2′-trifluoromethoxy-biphenyl-3-yloxy)-azetidine]
50	COc1ccc(-c2ccccc2OC)cc1OC1CNC1 [Example 9, 3-(4,2′-Dimethoxy-biphenyl-3-yloxy)-azetidine]
760	COc1ccc(-c2ccc(C)cc2)cc1OC1CNC1 [Example 11, 3-(4-Methoxy-4′-methyl-biphenyl-3-yloxy)-azetidine]
770	COc1ccc(-c2ccc(F)c(C)c2)cc1OC1CNC1 [Example 12, 3-(4′-Fluoro-4-methoxy-3′-methyl-biphenyl-3-yloxy)-azetidine]
1000	COc1ccc(-c2cccc(C)c2)cc1OC1CNC1 [Example 13, 3-(4-Methoxy-3′-methyl-biphenyl-3-yloxy)-azetidine]
250	COc1ccc(-c2ccc(C)c(C)c2)cc1OC1CNC1 [Example 14, 3-(4-Methoxy-3′,4′-dimethyl-biphenyl-3-yloxy)-azetidine]
120	COc1ccc(-c2ccccc2)cc1OC1CNC1 [Example 15, 3-(4-Methoxy-biphenyl-3-yloxy)-azetidine]
114	COc1ccc(-c2cc(C)ccc2C)cc1OC1CNC1 [Example 16, 3-(4-Methoxy-2′,5′-dimethyl-biphenyl-3-yloxy)-azetidine]
300	COc1ccc(-c2ccccc2Cl)cc1OC1CN(C2CCC2)C1 [Example 19, 3-(2′-Chloro-4-methoxy-biphenyl-3-yloxy)-1-cyclobutyl-azetidine trifluoroacetate]
25.5	FC(F)(F)c1ccccc1-c1cccc(OC2CNC2)c1 [Example 20, 3-(2′-Trifluoromethyl-biphenyl-3-yloxy)-azetidine]
34.6	Clc1ccccc1-c1cccc(OC2CNC2)c1 [Example 21, 3-(2′-Chloro-biphenyl-3-yloxy)-azetidine]
752	Cc1cccc(-c2cccc(OC3CNC3)c2)c1 [Example 22, 3-(3′-Methyl-biphenyl-3-yloxy)-azetidine]
67	Cc1ccccc1-c1cccc(OC2CNC2)c1 [Example 23, 3-(2′-Methyl-biphenyl-3-yloxy)-azetidine]
127	N#Cc1ccc(-c2ccccc2C(F)(F)F)cc1OC1CNC1 [Example 28, 3-(Azetidin-3-yloxy)-2′-trifluoromethyl-biphenyl-4-carbonitrile]
10000	N#Cc1ccc(-c2ccccc2)cc1OC1CNC1 [Example 29, 3-(Azetidin-3-yloxy)-biphenyl-4-carbonitrile]
508	Cc1ccccc1-c1ccc(C#N)c(OC2CNC2)c1 [Example 30, 3-(Azetidin-3-yloxy)-2′-methyl-biphenyl-4-carbonitrile]
454	CCOc1ccc(-c2ccccc2C)cc1OC1CNC1 [Example 32, 3-(4-Ethoxy-2′-methyl-biphenyl-3-yloxy)-azetidine hydrochloride]
525	Cc1ccccc1-c1ccc(OCC(F)(F)F)c(OC2CNC2)c1 [Example 33, 3-[2′-Methyl-4-(2,2,2-trifluoro-ethoxy)-biphenyl-3-yloxy]-azetidine]
755	Cc1ccccc1-c1ccc(OCC2CC2)c(OC2CNC2)c1 [Example 35, 3-(4-Cyclopropylmethoxy-2′-methyl-biphenyl-3-yloxy)-azetidine]
10000	Cc1ccccc1-c1ccc(OC(C)C)c(OC2CNC2)c1 [Example 36, 3-(4-Isopropoxy-2′-methyl-biphenyl-3-yloxy)-azetidine]
2270	CCN(CC)C(=O)c1ccc(-c2ccccc2C(F)(F)F)cc1OC1CNC1 [Example 37, 3-(Azetidin-3-yloxy)-2′-trifluoromethyl-biphenyl-4-carboxylic acid diethylamide]
189	Cc1cccc(-c2ccc(Cl)cc2OC2CNC2)c1 [Example 38, 3-(4-Chloro-3′-methyl-biphenyl-2-yloxy)-azetidine]

SMILES	Ki [nM]
COc1ccc(-c2ccccc2C#N)cc1OC1CNC1 [Example 3, 3′-(Azetidin-3-yloxy)-4′-methoxy-biphenyl-2-carbonitrile trifluoroacetate]	33.9
COc1ccc(-c2c(C)cccc2C)cc1OC1CNC1 [Example 6, 3-(4-Methoxy-2′,6′-dimethyl-biphenyl-3-yloxy)-azetidine trifluoroacetate]	8.2
COc1ccc(-c2c(Cl)cccc2C(F)(F)F)cc1OC1CNC1 [Example 10, 3-(2′-Chloro-4-methoxy-6′-trifluoromethyl-biphenyl-3-yloxy)-azetidine trifluoroacetate]	112
COc1ccc(-c2ccccc2Cl)cc1OC1CN(C(C)C)C1 [Example 18, 3-(2′-Chloro-4-methoxy-biphenyl-3-yloxy)-1-isopropyl-azetidine trifluoroacetate]	533
Clc1ccc(-c2ccccc2Cl)cc1OC1CNC1 [Example 24, 3-(4,2′-Dichloro-biphenyl-3-yloxy)-azetidine trifluoroacetate]	8.89
FC(F)(F)c1ccccc1-c1ccc(Cl)c(OC2CNC2)c1 [Example 25, 3-(4-Chloro-2′-trifluoromethyl-biphenyl-3-yloxy)-azetidine trifluoroacetate]	10.5
Cc1ccccc1-c1ccc(Cl)c(OC2CNC2)c1 [Example 26, 3-(4-Chloro-2′-methyl-biphenyl-3-yloxy)-azetidine trifluoroacetate]	15.5
Cc1cccc(-c2ccc(Cl)c(OC3CNC3)c2)c1 [Example 27, 3-(4-Chloro-3′-methyl-biphenyl-3-yloxy)-azetidine trifluoroacetate]	410
Cc1ccccc1-c1ccc(OC2CCC2)c(OC2CNC2)c1 [Example 34, 3-(4-Cyclobutoxy-2′-methyl-biphenyl-3-yloxy)-azetidine]	667

— US8575364B2, “Modulators of serotonin receptor” (Janssen Pharmaceutica NV, priority 2008, dated 2013)
